Experimental data taken from patent US9115101B2 (Genentech, Inc., priority 2012, dated 2015).

What follows are molecules tested against T1, RORc ligand binding domain (Homo sapiens, UniProt P51449) (assay: In Vitro RORc Ligand Binding Assay (25-[3H]hydroxycholesterol radioligand filtration)). Details: In Vitro RORc Ligand Binding Assay; Table 4; read-out: RORc IC50.
T1 construct: host or cells: E. coli
T1 sequence (P51449 269-508 limits assumed): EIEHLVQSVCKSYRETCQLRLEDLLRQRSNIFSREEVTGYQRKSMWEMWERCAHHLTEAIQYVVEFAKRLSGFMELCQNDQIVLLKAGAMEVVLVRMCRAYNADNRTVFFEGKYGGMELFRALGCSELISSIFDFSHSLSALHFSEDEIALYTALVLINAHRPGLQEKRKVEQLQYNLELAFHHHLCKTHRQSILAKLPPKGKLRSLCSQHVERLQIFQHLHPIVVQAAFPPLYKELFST

**Q.** Which IC50 does the source give for `CC(=O)N1CCN(c2ccc(CN3CCC(c4ccc(F)cc4)S3(=O)=O)c(F)c2)CC1` (centres unmarked) [Example 9, 1-(4-{3-Fluoro-4-[5-(4-fluoro-phenyl)-1,1-dioxo-isothiazolidin-2-ylmethyl]-phenyl}-piperazin-1-yl)-ethanone] here?
**A.** The IC50 was 7600 nM.

**Q.** For `CC(=O)N1CCN(c2ccc(CN3CCCC(c4ccccc4)S3(=O)=O)c(F)c2)CC1` (centres unmarked) [Example 10, 1-{4-[4-(1,1-Dioxo-6-phenyl-[1,2]thiazinan-2-ylmethyl)-3-fluoro-phenyl]-piperazin-1-yl}-ethanone], which IC50 is on record?
**A.** The IC50 was 149 nM.

**Q.** `CC(=O)N1CCN(c2ccc(CN3CCOCC(c4ccccc4)S3(=O)=O)c(F)c2)CC1` (centres unmarked) [Example 21, 1-{4-[4-(4,4-Dioxo-3-phenyl-[1,4,5]oxathiazepan-5-ylmethyl)-3-fluoro-phenyl]-piperazin-1-yl}-ethanone] was tested. Which IC50 did it give?
**A.** The IC50 was 209 nM.

**Q.** With `C[C@@H]1CCC(c2ccccc2)S(=O)(=O)N1Cc1ccc(OC2CCN(S(C)(=O)=O)CC2)cc1` (stereo partly drawn) [Example 52, (3R)-3-Methyl-2-(4-((1-(methylsulfonyl)piperidin-4-yl)oxy)benzyl)-6-phenyl-1,2-thiazinane 1,1-dioxide] as the molecule, how does the IC50 read?
**A.** Its IC50 is 20 nM.

**Q.** With `C[C@@H]1CCC(c2ccccc2)S(=O)(=O)N1Cc1ccc(OC2CCN(S(C)(=O)=O)CC2)cc1F` (stereo partly drawn) [Example 53, 2-(2-fluoro-4-((1-(methylsulfonyl)piperidin-4-yl)oxy)benzyl)-(3R)-3-methyl-6-phenyl-1,2-thiazinane 1,1-dioxide] as the molecule, how does the IC50 read?
**A.** The IC50 was 6 nM.

**Q.** For `CC(=O)N1CCN(c2ccc(CN3[C@@H](C)CCC(c4ccccc4)S3(=O)=O)nc2)CC1` (stereo partly drawn) [Example 67, 1-{4-[6-((3S)-3-Methyl-1,1-dioxo-6-phenyl-[1,2]thiazinan-2-ylmethyl)-pyridin-3-yl]-piperazin-1-yl}-ethanone], which IC50 is on record?
**A.** The IC50 was 1540 nM.

**Q.** Which IC50 does the source give for `C[C@H]1CCC(c2ccccc2)S(=O)(=O)N1Cc1ccc(NC2CCC(C#N)CC2)cc1F` (stereo partly drawn) [Example 101, 4-[3-Fluoro-4-((3S)-3-methyl-1,1-dioxo-6-phenyl-[1,2]thiazinan-2-ylmethyl)-phenylamino]-cyclohexanecarbo-nitrile] here?
**A.** Its IC50 is 18 nM.

**Q.** `C[C@H]1CCC(c2ccccc2)S(=O)(=O)N1Cc1ccc(N2CCN(C=O)CC2)cc1F` (stereo partly drawn) [Example 115, 4-[3-Fluoro-4-((3S)-3-methyl-1,1-dioxo-6-phenyl-[1,2]thiazinan-2-ylmethyl)-phenyl]-piperazine-1-carbaldehyde] was tested. Which IC50 did it give?
**A.** Its IC50 is 73 nM.

**Q.** With `C[C@H]1CCC(c2ccccc2)S(=O)(=O)N1Cc1ccc(N2CCC(C(=O)O)CC2)cc1F` (stereo partly drawn) [Example 120, 1-[3-Fluoro-4-((3S)-3-methyl-1,1-dioxo-6-phenyl-[1,2]thiazinan-2-ylmethyl)-phenyl]-piperidine-4-carboxylic acid] as the molecule, how does the IC50 read?
**A.** The IC50 was 102 nM.

**Q.** How did the IC50 turn out when `C[C@H]1CCC(c2ccccc2)S(=O)(=O)N1Cc1ccc(N2CCN(C3=CC(=O)CC3)CC2)cc1F` (stereo partly drawn) [Example 123, 3-{4-[3-Fluoro-4-((3S)-3-methyl-1,1-dioxo-6-phenyl-[1,2]thiazinan-2-ylmethyl)-phenyl]-piperazin-1-yl}-cyclopent-2-enone] was run?
**A.** The IC50 was 89 nM.

**Q.** How did the IC50 turn out when `CN/C(=N\C#N)N1CCN(c2ccc(CN3[C@@H](C)CCC(c4ccccc4)S3(=O)=O)c(F)c2)CC1` (stereo partly drawn) [Example 124, 1-(4-{3-Fluoro-4-[(3S)-6-phenyl-3-methyl-1,1-dioxo-[1,2]thiazinan-2-ylmethyl]-phenyl}-piperazin-1-yl)-(Z)-N′-cyano-N-methylacetimid-amide] was run?
**A.** The IC50 was 10 nM.

**Q.** `C[C@H]1CCC(c2ccccc2)S(=O)(=O)N1Cc1ccc(N2CCC(C(=O)NC#N)CC2)cc1F` (some centres unmarked) [Example 125] was tested. Which IC50 did it give?
**A.** Its IC50 is 18 nM.

**Q.** Which IC50 does the source give for `CN/C(=C\[N+](=O)[O-])N1CCN(c2ccc(CN3[C@@H](C)CCC(c4ccccc4)S3(=O)=O)c(F)c2)CC1` (stereo partly drawn) [Example 126, ((E)-1-{4-[3-Fluoro-4-((3S)-3-methyl-1,1-dioxo-6-phenyl-[1,2]thiazinan-2-ylmethyl)-phenyl]-piperazin-1-yl}-2-nitro-vinyl)-methyl-amine] here?
**A.** Its IC50 is 258 nM.

**Q.** Which IC50 does the source give for `CC(=O)N1CCN(c2ccc(CN3[C@@H](C)CCC(c4ccccc4)S3(=O)=O)c(Cl)c2)CC1` (stereo partly drawn) [Example 180, 1-{4-[3-Chloro-4-((3S)-3-methyl-1,1-dioxo-6-phenyl-[1,2]thiazinan-2-ylmethyl)-phenyl]-piperazin-1-yl}-ethanone] here?
**A.** Its IC50 is 1580 nM.

**Q.** For `CC1CC(=O)C=C(N2CCN(c3ccc(CN4[C@@H](C)CCC(c5ccccc5)S4(=O)=O)c(F)c3)CC2)C1` (stereo partly drawn) [Example 186, 3-{4-[3-Fluoro-4-((3S)-3-methyl-1,1-dioxo-6-phenyl-[1,2]thiazinan-2-ylmethyl)-phenyl]-piperazin-1-yl}-5-methyl-cyclohex-2-enone], which IC50 is on record?
**A.** The IC50 was 179 nM.

**Q.** `C[C@H]1CCC(c2ccccc2)S(=O)(=O)N1Cc1ccc(N2CCN(C3=CC(=O)CC(C)(C)C3)CC2)cc1F` (stereo partly drawn) [Example 187, 3-{4-[3-Fluoro-4-((3S)-3-methyl-1,1-dioxo-6-phenyl-[1,2]thiazinan-2-ylmethyl)-phenyl]-piperazin-1-yl}-5,5-dimethyl-cyclohex-2-enone] was tested. Which IC50 did it give?
**A.** The IC50 was 647 nM.

**Q.** How did the IC50 turn out when `C[C@H]1CCC(c2ccccc2)S(=O)(=O)N1Cc1ccc(N2CCN(C3=CC(=O)CCC3)CC2)cc1F` (stereo partly drawn) [Example 188, 3-{4-[3-Fluoro-4-((3S)-3-methyl-1,1-dioxo-6-phenyl-[1,2]thiazinan-2-ylmethyl)-phenyl]-piperazin-1-yl}-cyclohex-2-enone] was run?
**A.** Its IC50 is 108 nM.

**Q.** Which IC50 does the source give for `CC1=C(N2CCN(c3ccc(CN4[C@@H](C)CCC(c5ccccc5)S4(=O)=O)c(F)c3)CC2)CCC1=O` (stereo partly drawn) [Example 189, 3-{4-[3-Fluoro-4-((3S)-3-methyl-1,1-dioxo-6-phenyl-[1,2]thiazinan-2-ylmethyl)-phenyl]-piperazin-1-yl}-2-methyl-cyclopent-2-enone] here?
**A.** Its IC50 is 59 nM.

**Q.** How did the IC50 turn out when `C[C@H]1CCC(c2ccccc2)S(=O)(=O)N1Cc1ccc(N2CCC(n3cccn3)CC2)cc1F` (stereo partly drawn) [Example 209, (3S)-2-[2-Fluoro-4-(4-pyrazol-1-yl-piperidin-1-yl)-benzyl]-3-methyl-6-phenyl-[1,2]thiazinane 1,1-dioxide] was run?
**A.** Its IC50 is 121 nM.

**Q.** For `C[C@H]1CCC(c2ccccc2)S(=O)(=O)N1Cc1ccc(N2CCC(c3nnco3)CC2)cc1F` (stereo partly drawn) [Example 210, (3S)-2-[2-Fluoro-4-(4-[1,3,4]oxadiazol-2-yl-piperidin-1-yl)-benzyl]-3-methyl-6-phenyl-[1,2]thiazinane 1,1-dioxide], which IC50 is on record?
**A.** Its IC50 is 38 nM.

**Q.** `C[C@H]1CCC(c2ccccc2)S(=O)(=O)N1Cc1ccc(N2CCC(n3cncn3)CC2)cc1F` (stereo partly drawn) [Example 215, (3S)-2-[2-Fluoro-4-(4-[1,2,4]triazol-1-yl-piperidin-1-yl)-benzyl]-3-methyl-6-phenyl-[1,2]thiazinane 1,1-dioxide] was tested. Which IC50 did it give?
**A.** Its IC50 is 30 nM.

**Q.** With `C[C@H]1CCC(c2ccccc2)S(=O)(=O)N1Cc1ccc(NC2CCN(S(C)(=O)=O)CC2)cc1` (stereo partly drawn) [Example 216, (1-Methanesulfonyl-piperidin-4-yl)-[4-((3S)-3-methyl-1,1-dioxo-6-phenyl-[1,2]thiazinan-2-ylmethyl)-phenyl]-amine] as the molecule, how does the IC50 read?
**A.** The IC50 was 9 nM.

**Q.** Which IC50 does the source give for `C[C@H]1CCC(c2ccccc2)S(=O)(=O)N1Cc1ccc(N2CCC(n3ccnc3)CC2)cc1F` (stereo partly drawn) [Example 217, (3S)-2-[2-Fluoro-4-(4-imidazol-1-yl-piperidin-1-yl)-benzyl]-3-methyl-6-phenyl-[1,2]thiazinane 1,1-dioxide] here?
**A.** Its IC50 is 11 nM.

**Q.** `C[C@@H]1CC(c2ccccc2)S(=O)(=O)N(Cc2ccc(NC3CCN(S(C)(=O)=O)CC3)cc2F)C1` (stereo partly drawn) [Example 227, [3-Fluoro-4-((4R)-methyl-1,1-dioxo-6-phenyl-[1,2]thiazinan-2-ylmethyl)-phenyl]-(1-methanesulfonyl-piperidin-4-yl)-amine] was tested. Which IC50 did it give?
**A.** The IC50 was 3 nM.

**Q.** Which IC50 does the source give for `C[C@@H]1CC(c2ccccc2)S(=O)(=O)N(Cc2ccc(N3CCN(C(=O)CC#N)CC3)cc2F)C1` (stereo partly drawn) [Example 230, 3-{4-[3-Fluoro-4-((4R)-methyl-1,1-dioxo-6-phenyl-[1,2]thiazinan-2-ylmethyl)-phenyl]-piperazin-1-yl}-3-oxo-propionitrile] here?
**A.** The IC50 was 93 nM.

**Q.** For `C[C@H]1CCC(c2ccccc2)S(=O)(=O)N1Cc1ccc(N[C@H]2CC[C@@H](n3cnnc3)CC2)cc1F` (stereo partly drawn) [Example 231, [3-Fluoro-4-((3S)-methyl-1,1-dioxo-6-phenyl-[1,2]thiazinan-2-ylmethyl)-phenyl]-(4-[1,2,4]triazol-4-yl-cyclohexyl)-amine], which IC50 is on record?
**A.** The IC50 was 73 nM.

**Q.** With `C[C@H]1CCC(c2ccccc2)S(=O)(=O)N1Cc1ccc(N[C@H]2CC[C@H](n3cnnc3)CC2)cc1F` (stereo partly drawn) [Example 232, [3-Fluoro-4-((3S)-methyl-1,1-dioxo-6-phenyl-[1,2]thiazinan-2-ylmethyl)-phenyl]-(4-[1,2,4]triazol-4-yl-cyclohexyl)-amine] as the molecule, how does the IC50 read?
**A.** Its IC50 is 275 nM.

**Q.** For `C[C@H]1CCC(c2ccccc2)S(=O)(=O)N1Cc1ccc(N2CCC(/C(N)=N/O)CC2)cc1F` (stereo partly drawn) [Example 233, 1-[3-Fluoro-4-((3S)-methyl-1,1-dioxo-6-phenyl-[1,2]thiazinan-2-ylmethyl)-phenyl]-N-hydroxy-piperidine-4-carboxamidine], which IC50 is on record?
**A.** Its IC50 is 39 nM.

**Q.** Which IC50 does the source give for `C[C@H]1CCC(c2ccccc2)S(=O)(=O)N1Cc1ccc(N[C@H]2C[C@H](n3cnnc3)C2)cc1F` (stereo partly drawn) [Example 234, [3-Fluoro-4-((3S)-methyl-1,1-dioxo-6-phenyl-[1,2]thiazinan-2-ylmethyl)-phenyl]-(3-[1,2,4]triazol-4-yl-cyclobutyl)-amine] here?
**A.** Its IC50 is 132 nM.

**Q.** `C[C@H]1CCC(c2ccccc2)S(=O)(=O)N1Cc1ccc(N2CCC(c3ncon3)CC2)cc1F` (stereo partly drawn) [Example 235, 2-[2-Fluoro-4-(4-[1,2,4]oxadiazol-3-yl-piperidin-1-yl)-benzyl]-(3S)-methyl-6-phenyl-[1,2]thiazinane 1,1-dioxide] was tested. Which IC50 did it give?
**A.** The IC50 was 40 nM.

Same assay, conditions: read-out: RORc IC50

**Q.** Which IC50 does the source give for `C[C@H]1CCC(c2ccccc2)S(=O)(=O)N1Cc1ccc(OC[C@H]2CCC(=O)N2)cc1` (single isomer, unassigned) [Example 450] here?
**A.** The IC50 was 1050 nM.

**Q.** `C[C@H]1CCC(c2ccccc2)S(=O)(=O)N1Cc1ccc(OC[C@@H]2CCC(=O)N2)cc1` (single isomer, unassigned) [Example 454] was tested. Which IC50 did it give?
**A.** The IC50 was 620 nM.
